The target of one assay is T1, SYK kinase (Homo sapiens, UniProt P43405).
T1 construct: purchased Invitrogen, Carlsbad
As to the kind of experiment: SYK Assay (OMNIA KINASE ASSAY, SOX peptide fluorescence). To be noted: apparent Ki calculated from the IC50 using the Cheng-Prusoff equation; 1 mM ATP, 30° C.; read-out: SYK Activities: Ki. In kind it is biochemical. The procedure, abridged:
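Apparent Ki values are derived by Cheng-Prusoff from IC50s of sigmoidal fits of reaction rate against compound concentration. Rates come from chelation-enhanced SOX fluorescence (λex 360/λem 485 nm, read every 30 s over 30 min) as the kinase phosphorylates 10 µM Omnia Tyr 7 peptide at 30 °C, with 1 mM ATP and 0.2 mM DTT.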

The target in the next assay is LRRK2 (Homo sapiens, UniProt Q5S007). In words: LRRK2-LRRK2 G2019S-Assay (LanthaScreen Eu Kinase Binding Assay). As to conditions: 5 nM LRRK2 or their mutants, 10 nM tracer 236, RT 1 h; read-out: LRRK2 Activities: IC50. On the procedure: In the assay LanthaScreen™ Eu Kinase Binding Assay by Invitrogen Corporation (Carlsbad) the effect of invention of a compound on the phosphorylation is determined by measurement of fluorescence intensity emission ratio based on the binding and displacement of a proprietary, Alexa Fluor® 647-labeled, ATP-competitive kinase inhibitor scaffold (kinase tracer) to the kinase of interest. Binding of the tracer to the kinase is detected using a europium-labeled anti-tag antibody, which binds to the kinase of interest. Simultaneous binding of both the tracer and antibody to the kinase results in a high degree of FRET (fluorescence resonance energy transfer) from the europium (Eu) donor fluorophore to the Alexa Fluor® 647 acceptor fluorophore on the kinase tracer. Binding of an inhibitor to the kinase competes for binding with the tracer, resulting in a loss of FRET. The fluorescence intensity ratio is directly proportional to the amount of peptide phosphorylation.
LRRK2, sequence (Q5S007 970-2527 limits assumed): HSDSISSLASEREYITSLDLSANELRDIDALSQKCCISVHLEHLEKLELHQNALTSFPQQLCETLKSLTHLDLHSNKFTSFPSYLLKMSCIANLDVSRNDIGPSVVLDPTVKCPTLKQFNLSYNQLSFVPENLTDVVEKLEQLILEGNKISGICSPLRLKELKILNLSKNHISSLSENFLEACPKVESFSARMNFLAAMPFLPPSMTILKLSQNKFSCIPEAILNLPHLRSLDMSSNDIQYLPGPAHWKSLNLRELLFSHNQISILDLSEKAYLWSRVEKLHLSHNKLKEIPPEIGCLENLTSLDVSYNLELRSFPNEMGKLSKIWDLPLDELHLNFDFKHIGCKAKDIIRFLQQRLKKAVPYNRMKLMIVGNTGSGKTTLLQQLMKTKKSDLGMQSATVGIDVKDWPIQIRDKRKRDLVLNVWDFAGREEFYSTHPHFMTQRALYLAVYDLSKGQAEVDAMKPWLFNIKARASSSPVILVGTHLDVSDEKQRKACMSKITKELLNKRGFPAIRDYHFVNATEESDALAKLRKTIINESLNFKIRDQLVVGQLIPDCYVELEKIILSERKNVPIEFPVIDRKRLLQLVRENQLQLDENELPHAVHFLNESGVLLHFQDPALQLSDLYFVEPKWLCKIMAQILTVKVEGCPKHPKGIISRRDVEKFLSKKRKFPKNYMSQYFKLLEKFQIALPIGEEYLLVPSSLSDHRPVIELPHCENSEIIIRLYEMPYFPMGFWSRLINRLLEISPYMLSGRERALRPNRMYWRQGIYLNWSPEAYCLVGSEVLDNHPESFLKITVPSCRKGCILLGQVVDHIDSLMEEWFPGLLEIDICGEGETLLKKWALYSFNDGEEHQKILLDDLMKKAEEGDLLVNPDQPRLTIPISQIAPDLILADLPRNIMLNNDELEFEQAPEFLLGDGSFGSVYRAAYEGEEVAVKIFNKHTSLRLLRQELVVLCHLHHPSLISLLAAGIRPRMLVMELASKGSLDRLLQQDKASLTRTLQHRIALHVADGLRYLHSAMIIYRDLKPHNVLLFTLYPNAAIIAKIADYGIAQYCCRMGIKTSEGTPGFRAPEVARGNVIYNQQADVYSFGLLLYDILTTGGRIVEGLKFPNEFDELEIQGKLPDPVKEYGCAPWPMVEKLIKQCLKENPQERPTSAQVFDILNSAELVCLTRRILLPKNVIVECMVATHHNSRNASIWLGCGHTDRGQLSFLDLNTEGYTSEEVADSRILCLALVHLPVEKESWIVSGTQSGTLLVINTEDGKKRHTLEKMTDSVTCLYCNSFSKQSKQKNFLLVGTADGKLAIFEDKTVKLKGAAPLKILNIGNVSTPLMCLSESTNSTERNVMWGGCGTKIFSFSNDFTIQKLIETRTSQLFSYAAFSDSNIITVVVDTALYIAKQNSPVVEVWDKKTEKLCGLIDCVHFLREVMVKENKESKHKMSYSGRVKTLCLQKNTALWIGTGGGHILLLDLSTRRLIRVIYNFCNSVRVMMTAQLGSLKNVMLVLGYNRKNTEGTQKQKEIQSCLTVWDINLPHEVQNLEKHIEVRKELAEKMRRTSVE
To the wells of an 384 well small volume plate (Greiner, Frickenhausen) are added (i) the compound under test in 5% DMSO/distilled water (5 μl), (ii) 5 μl of the kinase antibody mixture resulting in a final concentration 5 nM LRRK2 or their mutants, 2 nM EU-Anti-GST antibody in 1× kinase buffer A. The reaction was started with addition of (iii) 5 μl resulting in a final concentration of 10 nM tracer 236. The assay plate was incubated at RT for 1 h and fluorescence intensitiy readings were collected using a TECAN M1000 at two wavelengthes of λex 340/λem 615 nm and λex 340/λm 665 nm with a delay time of 100 μs and an integration time of 200 μs after 60 minutes. The emission ratio was calculated by division of the acceptor/tracer emission ([…]) by the antibody/donor emission ([…]). The inhibitor concentration was plotted versus the emission ratio to determine the IC50 using XLFit 5.0 (IDBS, Guildford) to fit to a sigmoidal dose response curve with a variable slope.
In general terms: TR-FRET usually uses a lanthanide donor and a delayed reading to cut background.

Among the data in patent US9802937B2, “Substituted pyrazolo{4,3-D}pyrimidines as kinase inhibitors” (ORIGENIS GMBH, priority 2011, dated 2017) are Ki and IC50 values, retold here.

What is called IC50 is the concentration that inhibits the measured activity by half.

Regarding `COc1ccc(-c2nc(Nc3ccc(N(C)C)cc3)c3[nH]ncc3n2)cc1` [Example #78, N1-(5-(4-methoxyphenyl)-1H-pyrazolo[4,3-d]pyrimidin-7-yl)-N4,N4-dimethylbenzene-1,4-diamine], the Ki at SYK kinase was less than 10 nM. Further, the IC50 at LRRK2 was 100 to 1000 nM.
As for `COc1ccc(-c2nc(Nc3ccc4cn[nH]c4c3)c3[nH]ncc3n2)cc1` [Example #79, N-(1H-indazol-6-yl)-5-(4-methoxyphenyl)-1H-pyrazolo[4,3-d]pyrimidin-7-amine], the Ki at SYK kinase is less than 10 nM. Also, the IC50 at LRRK2 was 10 to 100 nM.
As to `COc1ccc(-c2nc(Nc3cccc(O)c3)c3[nH]ncc3n2)cc1` [Example #80, 3-((5-(4-methoxyphenyl)-1H-pyrazolo[4,3-d]pyrimidin-7-yl)amino)phenol], on SYK kinase, the Ki was 10 to 100 nM. Besides, the IC50 at LRRK2 is 100 to 1000 nM.
Regarding `COc1cccc(-c2nc(Nc3cccc(O)c3)c3[nH]ncc3n2)c1` [Example #81, 3-((5-(3-methoxyphenyl)-1H-pyrazolo[4,3-d]pyrimidin-7-yl)amino)phenol], the Ki at SYK kinase was 10 to 100 nM. Further, the IC50 on LRRK2 was 100 to 1000 nM.
As for `c1csc(-c2nc(Nc3ccc4cn[nH]c4c3)c3[nH]ncc3n2)c1` [Example #82, N-(1H-indazol-6-yl)-5-(thiophen-2-yl)-1H-pyrazolo[4,3-d]pyrimidin-7-amine], on SYK kinase, the Ki was less than 10 nM. For the same molecule, on LRRK2, the IC50 was less than 10 nM.
For `c1cc(-c2nc(Nc3ccc4c(c3)NCCO4)c3[nH]ncc3n2)cs1` [Example #84, N-(5-(thiophen-3-yl)-1H-pyrazolo[4,3-d]pyrimidin-7-yl)-3,4-dihydro-2H-benzo[b][1,4]oxazin-6-amine], the Ki at SYK kinase is less than 10 nM. In addition, the IC50 at LRRK2 was 10 to 100 nM.
Take `Oc1cccc(Nc2nc(-c3ccsc3)nc3cn[nH]c23)c1` [Example #85, 3-((5-(thiophen-3-yl)-1H-pyrazolo[4,3-d]pyrimidin-7-yl)amino)phenol]: the Ki on SYK kinase was 10 to 100 nM. Also, the IC50 at LRRK2 fell in the range of 100 to 1000 nM.
For `COc1ccc(-c2nc(Nc3cc(C4CC4)[nH]n3)c3[nH]ncc3n2)cc1` [Example #86, N-(5-cyclopropyl-1H-pyrazol-3-yl)-5-(4-methoxyphenyl)-1H-pyrazolo[4,3-d]pyrimidin-7-amine], on SYK kinase, the Ki is 10 to 100 nM. Moreover, the IC50 at LRRK2 fell in the range of 100 to 1000 nM.
As to `COc1ccc(-c2nc(Nc3ccc4c(c3)NCCO4)c3[nH]ncc3n2)cc1` [Example #87, N-(5-(4-methoxyphenyl)-1H-pyrazolo[4,3-d]pyrimidin-7-yl)-3,4-dihydro-2H-benzo[b][1,4]oxazin-6-amine], the Ki at SYK kinase was less than 10 nM. Besides, on LRRK2, the IC50 is 10 to 100 nM.
As for `COc1cccc(-c2nc(Nc3cc(C4CC4)[nH]n3)c3[nH]ncc3n2)c1` [Example #88, N-(5-cyclopropyl-1H-pyrazol-3-yl)-5-(3-methoxyphenyl)-1H-pyrazolo[4,3-d]pyrimidin-7-amine], on SYK kinase, the Ki is 100 to 1000 nM. Also, the IC50 on LRRK2 fell in the range of 100 to 1000 nM.
On to `COc1cccc(-c2nc(Nc3ccc4c(c3)NCCO4)c3[nH]ncc3n2)c1` [Example #89, N-(5-(3-methoxyphenyl)-1H-pyrazolo[4,3-d]pyrimidin-7-yl)-3,4-dihydro-2H-benzo[b][1,4]oxazin-6-amine], for which the Ki on SYK kinase is 10 to 100 nM. Moreover, at LRRK2, the IC50 is 10 to 100 nM.
`CN1CCC(c2nc(Nc3ccc4c(c3)NCCO4)c3[nH]ncc3n2)CC1` [Example #93, N-(5-(1-methylpiperidin-4-yl)-1H-pyrazolo[4,3-d]pyrimidin-7-yl)-3,4-dihydro-2H-benzo[b][1,4]oxazin-6-amine]: at SYK kinase, the Ki is 10 to 100 nM. Further, the IC50 at LRRK2 fell in the range of 100 to 1000 nM.
The matching figures for `COc1ccc(Nc2nc(-c3nc4ccccc4s3)nc3cn[nH]c23)cc1OC` [Example #96, 5-(benzo[d]thiazol-2-yl)-N-(3,4-dimethoxyphenyl)-1H-pyrazolo[4,3-d]pyrimidin-7-amine]: 10 to 100 nM and 100 to 1000 nM.
For the molecule `COc1ccc(Nc2nc(-c3cccc(-c4cccnc4)c3)nc3cn[nH]c23)cc1OC` [Example #101, N-(3,4-dimethoxyphenyl)-5-(3-(pyridin-3-yl)phenyl)-1H-pyrazolo[4,3-d]pyrimidin-7-amine], at SYK kinase, the Ki is 10 to 100 nM. Moreover, the IC50 on LRRK2 lay within 100 to 1000 nM.
Consider `COc1ccccc1-c1nc(Nc2ccc(N3CCN(C)CC3)cc2)c2[nH]ncc2n1` [Example #108, 5-(2-methoxyphenyl)-N-(4-(4-methylpiperazin-1-yl)phenyl)-1H-pyrazolo[4,3-d]pyrimidin-7-amine], for which, at SYK kinase, the Ki is 10 to 100 nM. Further, the IC50 at LRRK2 lay in the range of 100 to 1000 nM.
For `COc1ccc(Nc2nc(-c3ccccc3OC)nc3cn[nH]c23)cc1OC` [Example #109, N-(3,4-dimethoxyphenyl)-5-(2-methoxyphenyl)-1H-pyrazolo[4,3-d]pyrimidin-7-amine], in that order: 10 to 100 nM and 100 to 1000 nM.
For `COc1ccccc1-c1nc(Nc2ccc3c(c2)NCCO3)c2[nH]ncc2n1` [Example #110, N-(5-(2-methoxyphenyl)-1H-pyrazolo[4,3-d]pyrimidin-7-yl)-3,4-dihydro-2H-benzo[b][1,4]oxazin-6-amine], in that order: 10 to 100 nM and 100 to 1000 nM.
For `COc1ccccc1-c1nc(Nc2ccc3cn[nH]c3c2)c2[nH]ncc2n1` [Example #111, N-(1H-indazol-6-yl)-5-(2-methoxyphenyl)-1H-pyrazolo[4,3-d]pyrimidin-7-amine], in that order: 10 to 100 nM and 100 to 1000 nM.
Turning to `CCN1CCN(c2ccc(Nc3nc(-c4ccccc4)nc4cn[nH]c34)cc2)CC1` [Example #119, N-(4-(4-ethylpiperazin-1-yl)phenyl)-5-phenyl-1H-pyrazolo[4,3-d]pyrimidin-7-amine], the Ki at SYK kinase is less than 10 nM. Also, the IC50 at LRRK2 fell in the range of 100 to 1000 nM.
The matching figures for `c1ccn2cc(-c3nc(Nc4ccc5[nH]ncc5c4)c4[nH]ncc4n3)nc2c1` [Example #126, 5-(imidazo[1,2-a]pyridin-2-yl)-N-(1H-indazol-5-yl)-1H-pyrazolo[4,3-d]pyrimidin-7-amine]: 10 to 100 nM and 100 to 1000 nM.
`O=C(c1ccc(Nc2nc(-c3cccs3)nc3cn[nH]c23)cc1)N1CCCC1` [Example #135, pyrrolidin-1-yl(4-((5-(thiophen-2-yl)-1H-pyrazolo[4,3-d]pyrimidin-7-yl)amino)phenyl)methanone]: the Ki on SYK kinase was 10 to 100 nM. For the same molecule, at LRRK2, the IC50 was less than 10 nM.
Take `c1csc(-c2nc(Nc3ccc(N4CCSCC4)cc3)c3[nH]ncc3n2)c1` [Example #136, N-(4-thiomorpholinophenyl)-5-(thiophen-2-yl)-1H-pyrazolo[4,3-d]pyrimidin-7-amine]: the Ki on SYK kinase is 10 to 100 nM. Moreover, the IC50 on LRRK2 lay within 10 to 100 nM.
Consider `O=S1(=O)CCN(c2ccc(Nc3nc(-c4cccs4)nc4cn[nH]c34)cc2)CC1` [Example #137, 4-(4-((5-(thiophen-2-yl)-1H-pyrazolo[4,3-d]pyrimidin-7-yl)amino)phenyl)thiomorpholine 1,1-dioxide], for which the Ki on SYK kinase was less than 10 nM. For the same molecule, the IC50 at LRRK2 was in the range of 10 to 100 nM.
Take `CN1CCN(c2ccc(Nc3nc(-c4cnc[nH]4)nc4cn[nH]c34)cc2)CC1` [Example #140, 5-(1H-imidazol-5-yl)-N-(4-(4-methylpiperazin-1-yl)phenyl)-1H-pyrazolo[4,3-d]pyrimidin-7-amine]: the Ki on SYK kinase was 10 to 100 nM. Also, the IC50 on LRRK2 was in the range of 100 to 1000 nM.
As for `O=C(c1ccc(Nc2nc(-c3ccsc3)nc3cn[nH]c23)cc1)N1CCCC1` [Example #142, pyrrolidin-1-yl(4-((5-(thiophen-3-yl)-1H-pyrazolo[4,3-d]pyrimidin-7-yl)amino)phenyl)methanone], at SYK kinase, the Ki is 10 to 100 nM. Further, on LRRK2, the IC50 was 100 to 1000 nM.
On to `c1cc(-c2nc(Nc3ccc(N4CCSCC4)cc3)c3[nH]ncc3n2)cs1` [Example #145, N-(4-thiomorpholinophenyl)-5-(thiophen-3-yl)-1H-pyrazolo[4,3-d]pyrimidin-7-amine], for which the Ki at SYK kinase was 10 to 100 nM. At LRRK2, the IC50 was in the range of 10 to 100 nM.
On to `O=C1COc2ccc(Nc3nc(-c4ccsc4)nc4cn[nH]c34)cc2N1` [Example #146, 6-((5-(thiophen-3-yl)-1H-pyrazolo[4,3-d]pyrimidin-7-yl)amino)-2H-benzo[b][1,4]oxazin-3(4H)-one], for which the Ki on SYK kinase was 10 to 100 nM. For the same molecule, on LRRK2, the IC50 fell in the range of 100 to 1000 nM.
The matching figures for `O=C(O)c1cccc(-c2nc(Nc3ccc(N4CCOCC4)cc3)c3[nH]ncc3n2)c1` [Example #156, 3-(7-((4-morpholinophenyl)amino)-1H-pyrazolo[4,3-d]pyrimidin-5-yl)benzoic acid]: 10 to 100 nM and 100 to 1000 nM.
